# Source: patent US20130150325A1, “3-(Fluorovinyl)pyrazoles and their use” (BAYER INTELLECTUAL PROPERTY GMBH, priority 2011, published 2013)
# pIC50: −log10 of the molar value.
# Tested on: HCT 116 cells transfected with a luciferase reporter under the control of an HIF-responsive sequence
# Experiment: HIF-luciferase assay
# Format: cell-based
# Settings: Homo sapiens; HCT 116 HIF-luciferase reporter cells, hypoxia chamber (1% O2), 24 h; in some cases means of up to four individual determinations
# Protocol: HCT 116 cells were transfected in a stable manner with a plasmid which contained a luciferase reporter under the control of an HIF-responsive sequence. These cells were sown in microtitre plates [20 000 cells/cavity in RPMI 1640 medium with 10% foetal calf serum (FCS) and 100 μg/ml of hygromycin]. Incubation was carried out overnight under standard conditions (5% CO2, 21% O2, 37° C., moistened). The following morning the cells were incubated with various concentrations of the test substances (0-10 μmol/l) in a hypoxia chamber (1% O2). After 24 h, Bright Glo reagent (Promega, Wisconsin, USA) was added in accordance with the manufacturer's instructions, and after 5 min the luminescence was measured. Cells which were incubated under normoxia served as background controls.
# The IC50 values from this assay for representative working examples are listed in the following table (in same cases as means of up to four individual determinations): […]
row,Structure (SMILES),pIC50
1,"Cc1cc(/C(F)=C/c2ccc(C(C)(C)C(F)(F)F)cc2)nn1Cc1cccc(C(C)(C)O)c1 [Example 54, 2-{3-[(3-{(Z)-1-Fluoro-2-[4-(1,1,1-trifluoro-2-methylpropan-2-yl)phenyl]vinyl}-5-methyl-1H-pyrazol-1-yl)methyl]phenyl}propan-2-ol]",8.52
2,"Cc1cc(/C(F)=C/c2ccc(OC(F)(F)F)cc2)nn1Cc1cccc(C(=O)N2CCN(C3CC3)CC2)c1 [Example 37, (4-Cyclopropylpiperazin-1-yl) {3-[(3-{(Z)-1-fluoro-2-[4-(trifluoromethoxy)phenyl]vinyl}-5-methyl-1H-pyrazol-1-yl)methyl]phenyl}methanone]",8.52
3,"Cc1cc(/C(F)=C/c2ccc(C(C)(C)C(F)(F)F)cc2)nn1Cc1cccc(C2(O)CC2)c1 [Example 49, 1-{3-[(3-{(Z)-1-Fluoro-2-[4-(1,1,1-trifluoro-2-methylpropan-2-yl)phenyl]vinyl}-5-methyl-1H-pyrazol-1-yl)methyl]phenyl}cyclopropanol]",9.10
4,"Cc1cc(/C=C(\F)c2ccc(OC(F)(F)F)cc2)nn1Cc1cccc(C(C)(C)O)c1 [Example 121, 2-{3-[(3-{(Z)-2-Fluoro-2-[4-(trifluoromethoxy)phenyl]vinyl}-5-methyl-1H-pyrazol-1-yl)methyl]phenyl}propan-2-ol]",7.40
5,"Cc1cc(/C(F)=C/c2ccc(C(C)(C)C(F)(F)F)cc2)nn1Cc1cccc(C(=O)N2CCC(O)CC2)c1 [Example 34, {3-[(3-{(Z)-1-Fluoro-2-[4-(1,1,1-trifluoro-2-methylpropan-2-yl)phenyl]vinyl}-5-methyl-1H-pyrazol-1-yl)methyl]phenyl}(4-hydroxypiperidin-1-yl)methanone]",8.30
6,"Cc1cc(/C(F)=C/c2ccc(C(O)(C(F)(F)F)C(F)(F)F)cc2)nn1Cc1ccnc(N2CCN(C3CC3)CC2)c1 [Example 108, 2-{4-[(Z)-2-(1-{[2-(4-Cyclopropylpiperazin-1-yl)pyridin-4-yl]methyl}-5-methyl-1H-pyrazol-3-yl)-2-fluorovinyl]phenyl}-1,1,1,3,3,3-hexafluoropropan-2-ol]",8.52
7,"Cc1cc(/C(F)=C/c2ccc(C3(C(F)(F)F)CC3)cc2)nn1Cc1cccc(N2CCC(O)CC2)c1 [Example 14, 1-[3-({3-[(Z)-1-Fluoro-2-{4-[1-(trifluoromethyl)cyclopropyl]phenyl}vinyl]-5-methyl-1H-pyrazol-1-yl}methyl)phenyl]piperidin-4-ol]",9.70
8,"Cc1cc(/C(F)=C/c2ccc(CN(C(C)C)C(C)C)cc2)nn1Cc1ccnc(N2CCN(C3CC3)CC2)c1 [Example 109, N-{4-[(Z)-2-(1-{[2-(4-Cyclopropylpiperazin-1-yl)pyridin-4-yl]methyl}-5-methyl-1H-pyrazol-3-yl)-2-fluorovinyl]benzyl}-N-isopropylpropane-2-amine]",8.82
9,"Cc1ccc(Cn2nc(/C(F)=C/c3ccc(OC(F)(F)F)cc3)cc2C)cc1 [Example 2, 3-{(Z)-1-Fluoro-2-[4-(trifluoromethoxy)phenyl]vinyl}-5-methyl-1-(4-methylbenzyl)-1H-pyrazole]",7.52
10,"Cc1cc(/C(F)=C/c2ccc(OC(F)(F)F)cc2)nn1Cc1cccc(C2(O)CC2)c1 [Example 48, 1-{3-[(3-{(Z)-1-Fluoro-2-[4-(trifluoromethoxy)phenyl]vinyl}-5-methyl-1H-pyrazol-1-yl)methyl]-phenyl}cyclopropanol]",8.70
11,"CNc1ccc(Cn2nc(/C(F)=C/c3ccc(C4(C(F)(F)F)CC4)cc3)cc2C)cn1 [Example 84, 5-({3-[(Z)-1-Fluoro-2-{4-[1-(trifluoromethyl)cyclopropyl]phenyl}vinyl]-5-methyl-1H-pyrazol-1-yl}methyl)-N-methylpyridine-2-amine]",8.70
12,"CNc1ccc(Cn2nc(/C(F)=C/c3ccc(SC(C)(C)C(=O)N4CCCC4)cc3)cc2C)cn1 [Example 93, 2-({4-[(Z)-2-Fluoro-2-(5-methyl-1-{[6-(methylamino)pyridin-3-yl]methyl}-1H-pyrazol-3-yl)-vinyl]phenyl}sulphanyl)-2-methyl-1-(pyrrolidin-1-yl)propan-1-one]",8.30
